Measured values taken from patent US8487133B2, “Substituted bicyclo [4.1.0] heptane-7-carboxylic acid amides and derivatives thereof as food flavor substances” (Symrise AG, priority 2006, dated 2013).

How the values were obtained:
[1] = Sensorial tests of the taste of the compounds (own investigations); assay type: in vivo; conditions: for intrinsic umami taste: sensorial tests of the compound; for cooling effect / salt-intensifying effect: sensorial tests
Description: From the taste aspect the use according to the invention of a compound of the Formula (I) which is one of the two enantiomeric compounds of the Formula (IVa),
In this connection the relative configuration of the stereogenic centers is of great importance.

trained panel = experiment: Sensorial tests in American beef bouillon / meat broth by trained panel (mouthfeel, comparison with MSG); assay type: in vivo; conditions: for umami taste compared to other compounds having an umami taste / MSG: American beef bouillon base, 5 ppm (IVc), 2 ppm (B1)+(B2), 0.5 ppm (P1)+(P2) vs 0.05 wt. % MSG (FIG. 1-3)
Description: This is also illustrated in the accompanying spider diagrams, in which an American beef bouillon as base is compared firstly to such a base containing an addition of 5 ppm of (1R,2S,5R,6S,7R)-2-isopropyl-5-methyl-bicyclo[4.1.0]heptane-7-carboxylic acid ethylamide (IVc) (FIG. 1) or 2 ppm of a mixture of (1S,2S,5R,6R,7S)-2-isopropyl-5-methyl-bicyclo[4.1.0]heptane-7-carboxylic acid cyclobutylamide (B1) and (1R,2S,5R,6S,7R)-2-isopropyl-5-methyl-bicyclo[4.1.0]heptane-7-carboxylic acid cyclobutylamide (B2) (FIG. 2) or 0.5 ppm of a mixture of (1S,2S,5R,6R,7S)-2-isopropyl-5-methyl-bicyclo[4.1.0]heptane-7-carboxylic acid cyclopentylamide (P1) and (1R,2S,5R,6S,7R)-2-isopropyl-5-methyl-bicyclo[4.1.0]heptane-7-carboxylic acid-cyclopentylamide (P2) (FIG. 3) respectively, and secondly with such a base containing an addition of 0.05 wt. % of MSG.
The mean values of the respective scores are shown.
The taste of a 0.5% American beef extract as base (continuous, pale line) was compared on the basis of an evaluation by a panel of trained testers with the taste firstly of such a base to which 5 ppm of (1R,2S,5R,6S,7R)-2-isopropyl-5-methyl-bicyclo[4.1.0]heptane-7-carboxylic acid ethylamide had been added (continuous, dark line), and secondly of such a base to which 0.05 wt. % of MSG had been added (dotted line).
The taste of a 0.5% American beef extract as base (continuous, pale line) was compared on the basis of an evaluation by a panel of trained testers to the taste firstly of such a base to which 2 ppm of a mixture of 1S,2S,5R,6R,7S)-2-isopropyl-5-methyl-bicyclo[4.1.0]heptane-7-carboxylic acid cyclobutylamide (B1) and (1R,2S,5R,6S,7R)-2-isopropyl-5-methyl-bicyclo[4.1.0]heptane-7-carboxylic acid cyclobutylamide (B2) had been added (continuous, dark line), and secondly of such a base to which 0.05 wt. % of MSG had been added (dotted line).
The taste of a 0.5 wt. % American beef extract as base (continuous, pale line) was compared on the basis of an evaluation by a panel of trained testers with the taste firstly of such a base to which 0.5 ppm of a mixture of (1S,2S,5R,6R,7S)-2-Isopropyl-5-methyl-bicyclo[4.1.0]heptane-7-carboxylic acid cyclopentylamide (P1) and (1R,2S,5R,6S,7R)-2-isopropyl-5-methyl-bicyclo[4.1.0]heptane-7-carboxylic acid cyclopentylamide (P2) had been added (continuous, dark line), and secondly of such a base to which 0.05 wt. % of MSG had been added (dotted line).

CC(C)[C@@H]1CC[C@@H](C)[C@H]2[C@H](C(=O)NC3CCCCC3)[C@H]21 [Formula (H1), (1S,2S,5R,6R,7S)-2-isopropyl-5-methyl-bicyclo[4.1.0]heptane-7-carboxylic acid cyclohexylamide]
intrinsic umami taste [1]: very strongly pronounced

CC(C)[C@@H]1CC[C@@H](C)[C@@H]2[C@@H](C(=O)NC3CCCCC3)[C@@H]21 [Formula (H2), (1R,2S,5R,6S,7R)-2-isopropyl-5-methyl-bicyclo[4.1.0]heptane-7-carboxylic acid-cyclohexylamide]
intrinsic umami taste [1]: very strongly pronounced

CCNC(=O)[C@@H]1[C@@H]2[C@H]1[C@H](C(C)C)CC[C@H]2C (single isomer, unassigned) [Formula (IVc)]
mouthfeel (trained panel; 5 ppm added to 0.5 wt. % American beef bouillon, compared with 0.05 wt. % MSG): increased by roughly the same extent as is normally achieved only by the addition of 0.05 wt. % of MSG
umami taste compared to other compounds having an umami taste / MSG (trained panel): clear umami taste very similar to sodium glutamate (MSG)
intensification of saltiness, sweetness and umami taste of aroma compositions ([1]; in vivo): intensifies the saltiness, the sweetness and the umami taste
cooling effect [1]: no cooling effect
intrinsic umami taste [1]: very strongly pronounced

(1R,2S,5R,6S,7R)-2-isopropyl-5-methyl-bicyclo[4.1.0]heptane-7-carboxylic acid cyclohexylamide/(1S,2S,5R,6R,7S)-2-isopropyl-5-methyl-bicyclo[4.1.0]heptane-7-carboxylic acid cyclohexylamide [mixture of (H1) and (H2)]
intrinsic umami taste [1]: umami note was also detected, which however developed somewhat more slowly

(1R,2S,5R,6S,7R)-2-isopropyl-5-methyl-bicyclo[4.1.0]heptane-7-carboxylic acid cyclobutylamide/(1S,2S,5R,6R,7S)-2-isopropyl-5-methyl-bicyclo[4.1.0]heptane-7-carboxylic acid cyclobutylamide [mixture of (B1) and (B2)]
umami taste compared to other compounds having an umami taste / MSG (trained panel): clear umami taste very similar to sodium glutamate (MSG)
sweetish impression ([1]; in vivo): slightly sweetish impression
intrinsic umami taste [1]: very strong umami note

CC(C)[C@@H]1CC[C@@H](C)[C@H]2[C@H](C(=O)NC3CCC3)[C@H]21 [Formula (B1), (1S,2S,5R,6R,7S)-2-isopropyl-5-methyl-bicyclo[4.1.0]heptane-7-carboxylic acid cyclobutylamide]
intrinsic umami taste [1]: very strongly pronounced

CCNC(=O)C1C2CCCCC21 (stereo not drawn) [Bicyclo[4.1.0]heptane-7-carboxylic acid N-ethylamide, reference compound]
taste ([1]; in vivo): no detectable taste

(1R,2S,5R,6S,7R)-2-isopropyl-5-methyl-bicyclo[4.1.0]heptane-7-carboxylic acid cyclopentylamide/(1S,2S,5R,6R,7S)-2-isopropyl-5-methyl-bicyclo[4.1.0]heptane-7-carboxylic acid cyclopentylamide [mixture of (P1) and (P2)]
umami taste compared to other compounds having an umami taste / MSG (trained panel): clear umami taste very similar to sodium glutamate (MSG)
umami taste ([1]; at very low concentrations): very much more intensive and clear

CCNC(=O)C1C2CC(C)CC(C)C21 (stereo not drawn) [2,4-dimethyl-bicyclo[4.1.0]heptane-7-carboxylic acid ethylamide]
salt-intensifying effect [1]: slight
intrinsic umami taste [1]: stronger, umami-like

CCNC(=O)C1C2C(C)CCC(C(C)C)C12 (stereo not drawn) [2-Isopropyl-5-methyl-2-ispropyl-bicyclo[4.1.0]heptane-7-carboxylic acid ethylamide]
sensorial properties ([1]; in vivo): particularly strong

CCNC(=O)C1C2CCCC(C(C)C)C21 (stereo not drawn) [2-isopropyl-bicyclo[4.1.0]heptane-7-carboxylic acid ethylamide, reference compound]
salt-intensifying effect [1]: slight
intrinsic umami taste [1]: very slight, umami-like

CCNC(=O)C1CC1 [cyclopropanecarboxylic acid ethylamide, Cyclopropanecarboxylic acid N-ethylamide, reference compound]
contribution to the mouthfeel (trained panel; meat broth/consommé compositions): does not make any statistically significant contribution
umami taste ([1]; 10 ppm in aqueous solutions): very weak umami taste

CCNC(=O)C1C2C3CCC(C3)C12 (stereo not drawn) [Tricyclo[3.2.1.0^2,4]octane-3-carboxylic acid N-ethylamide]
mouthfeel (trained panel; 50 ppm in broths/consommés made from American beef extract): statistically significant increase
salt-intensifying effect [1]: salt-intensifying effect
intrinsic umami taste [1]: distinct umami taste

CCNC(=O)C1C2C1[C@H](C)CC[C@H]2C(C)C (single isomer, unassigned) [mixture of both diastereomers]
cooling effect [1]: can no longer be detected
intrinsic umami taste [1]: completely dominated by the umami impression of the (1R,2S,5R,6S,7R) isomer

CC(C)[C@@H]1CC[C@@H](C)[C@@H]2[C@@H](C(=O)NC3CCC3)[C@@H]21 [Formula (B2), (1R,2S,5R,6S,7R)-2-isopropyl-5-methyl-bicyclo[4.1.0]heptane-7-carboxylic acid-cyclobutylamide]
intrinsic umami taste [1]: very strongly pronounced

CCNC(=O)[C@@H]1[C@@H]2[C@H]1[C@H](C)CC[C@H]2C(C)C [(1S,2S,5R,6R,7S)-2-isopropyl-5-methyl-bicyclo[4.1.0]heptane-7-carboxylic acid ethylamide]
cooling effect [1]: slight
intrinsic umami taste [1]: only moderately
